For 45 molecules, IC50 results are on record in patent US10975092B2, “Pyrimidine seven-membered-ring compounds, preparation method therefor, pharmaceutical composition thereof, and uses thereof” (priority 2016, dated 2021).

One experiment has as its target T1, recombinant MST2 (Homo sapiens, UniProt Q13188).
T1 sequence (Q13188 1-491): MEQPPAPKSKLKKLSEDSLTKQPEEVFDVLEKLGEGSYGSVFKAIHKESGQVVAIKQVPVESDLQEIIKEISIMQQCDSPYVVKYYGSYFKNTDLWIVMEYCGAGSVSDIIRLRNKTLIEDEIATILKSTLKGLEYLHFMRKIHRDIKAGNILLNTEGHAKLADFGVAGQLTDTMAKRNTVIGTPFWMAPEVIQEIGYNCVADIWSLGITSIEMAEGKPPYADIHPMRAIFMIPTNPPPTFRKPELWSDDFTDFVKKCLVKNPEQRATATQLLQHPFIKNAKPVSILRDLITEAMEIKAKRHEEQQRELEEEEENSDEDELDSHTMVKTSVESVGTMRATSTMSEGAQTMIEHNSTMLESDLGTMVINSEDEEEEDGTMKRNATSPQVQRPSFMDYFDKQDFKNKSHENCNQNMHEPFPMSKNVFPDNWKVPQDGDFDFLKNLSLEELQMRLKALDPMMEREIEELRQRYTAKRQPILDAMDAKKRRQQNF
Put plainly: Inhibition of Mst2 kinase activity, ELISA of Mob1 substrate phosphorylation. The experiment is classed as biochemical. The conditions noted are these: MST2 IC50, 3.7 nM recombinant MST2; ATP 11.2 gIVI; GST-Mob1a substrate; 30° C. 15 min. How it is done:
(§1) We adopt a specific ELISA (Enzyme-linked immunosorbent assay) assay for measuring the biochemical activity (FIG. 1).
(§2) Specific methods are as follows:
(§3) 1. The substrate was diluted with purified recombinant GST-Mobla 200 nM in coating buffer, added to 96-well plates (Nalge Nunc International, Denmark), coated for overnight at 4° C., washed nextday three times with rinsing solution;
(§4) a. A kinase reaction buffer;
(§5) c. compound (dissolved in DMSO, containing not more than 1% of the total volume of the reaction);
(§6) Control Group Containing No ATP or Kinase;
(§7) 3. The reaction solution was poured to terminate the kinase reaction, and washed 4 times with rinse solution, 5 minutes each wash;
(§8) 4. Add 200 μL, per well of the blocking solution, shaking for 1 hour at room temperature, washed 4 times with rinsing solution;
(§9) 7. Add TMB chromogenic solution (Biolegend, Cat.B200119, B200120). After the color reaction to a certain extent, add to each well 100 μL, of 2M H2SO4 to terminate the reaction;
(§10) 8. […] Each set of three parallel experiments, the negative control is a solution with a final concentration of 1% DMSO, the control is the reaction system containing no ATP. […] The reagents are as follows: Coating Buffer: 0.1M NaHCO 3, 0.033M Na2CO3, pH 9.5 Rinse solution: 0.05% Tween-20 in PBS Reaction buffer: 40 mM of Hepes-NaOH (pH 7.4), 10 mM of MgCl2, 1 mM of dithiothreitol (DTT), 1 mM of NaF, 1 mM of Na3VO4, 1 mM of β-glycerophosphate Blocking solution: 1% BSA dissolved in PBS Compound Inhibition of Kinase Activity
(In an ELISA, binding on a coated surface is turned into a signal by an enzyme label.)

Another experiment has as its target T2, recombinant Mst1 (Homo sapiens, UniProt Q13043).
T2 sequence (Q13043 1-487): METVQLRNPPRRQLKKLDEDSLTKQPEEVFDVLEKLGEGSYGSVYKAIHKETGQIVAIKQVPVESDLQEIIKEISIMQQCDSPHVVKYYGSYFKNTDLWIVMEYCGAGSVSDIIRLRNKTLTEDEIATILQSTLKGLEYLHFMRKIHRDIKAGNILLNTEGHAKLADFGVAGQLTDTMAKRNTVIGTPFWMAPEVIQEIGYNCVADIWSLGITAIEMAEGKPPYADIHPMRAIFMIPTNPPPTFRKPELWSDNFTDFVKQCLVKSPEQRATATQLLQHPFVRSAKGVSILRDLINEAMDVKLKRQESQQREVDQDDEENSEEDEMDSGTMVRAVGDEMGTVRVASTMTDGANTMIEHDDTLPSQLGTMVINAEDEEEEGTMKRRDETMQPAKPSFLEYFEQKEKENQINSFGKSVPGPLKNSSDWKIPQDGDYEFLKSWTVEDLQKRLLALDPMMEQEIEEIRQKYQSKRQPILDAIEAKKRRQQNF
Put plainly: Inhibition of Mst1 kinase activity, ELISA of Mob1 substrate phosphorylation. The format is biochemical. The conditions noted are these: MST1 IC50, recombinant Mst1 11 nM; ATP 6.7 gIVI; GST-Mob1a substrate; 30° C. 15 min. The method, then:
as §1, §2, §3, §4, §5, §6, §7, §8, §9, §10

As to `CN1CCN(S(=O)(=O)c2ccc(Nc3ncc4c(n3)N(C)c3ccccc3C(=O)N4)cc2)CC1` [IA-2], the IC50 (commonly the concentration that inhibits the measured activity by half) worked out at 14800 nM on recombinant MST2 and 2380 nM on recombinant Mst1.

For `CN1CCN(S(=O)(=O)c2ccc(Nc3ncc4c(n3)N(C3CCCC3)c3ccccc3C(=O)N4)cc2)CC1` [IB-2], the IC50 at recombinant MST2 and at recombinant Mst1 was more than 30000 nM throughout.

Take `O=C1Nc2cnc(Nc3ccc(S(=O)(=O)N4CCC(O)CC4)cc3)nc2N(C2CCCC2)c2ccccc21` [IB-3]: the IC50 on recombinant MST2 and on recombinant Mst1 was more than 30000 nM throughout.

In the case of `CN1C(=O)c2ccccc2N(C)c2nc(Nc3ccc(S(N)(=O)=O)cc3)ncc21` [IC-1], the IC50 is 110 nM at recombinant MST2 and 70 nM at recombinant Mst1.

With `CN1CCN(S(=O)(=O)c2ccc(Nc3ncc4c(n3)N(C)c3ccccc3C(=O)N4C)cc2)CC1` [IC-2], the IC50 was found to be 7800 nM at recombinant MST2 and 2320 nM at recombinant Mst1.

For the molecule `CN1C(=O)c2ccccc2N(C)c2nc(Nc3ccc(S(=O)(=O)N4CCC(O)CC4)cc3)ncc21` [IC-3], the results for the IC50 at recombinant MST2 and on recombinant Mst1 were 520 nM and 670 nM, respectively.

With `CSc1ccc(Nc2ncc3c(n2)N(C)c2ccccc2C(=O)N3C)cc1` [IC-6], the IC50 at recombinant MST2 amounted to 1800 nM; at recombinant Mst1 it was 1910 nM.

Regarding `CN1C(=O)c2ccccc2N(C)c2nc(Nc3ccc(S(C)(=O)=O)cc3)ncc21` [IC-7], the IC50 came to 90 nM on recombinant MST2 and 500 nM at recombinant Mst1.

With `CN1C(=O)c2ccccc2N(C)c2nc(Nc3ccc(S(=O)(=O)Oc4ccccc4)cc3)ncc21` [IC-8], the IC50 on recombinant MST2 worked out at 200 nM; at recombinant Mst1, 13500 nM.

For `CN1C(=O)c2ccccc2N(C)c2nc(Nc3ccc(S(=O)(=O)NC4CC4)cc3)ncc21` [IC-9], the IC50 on recombinant MST2 worked out at 2330 nM; on recombinant Mst1 it was 180 nM.

Regarding `CN1C(=O)c2ccccc2N(C)c2nc(Nc3ccc(NS(C)(=O)=O)cc3)ncc21` [IC-10], the concentration for half-maximal inhibition (IC50) at recombinant MST2 was 80 nM; on recombinant Mst1, 240 nM.

On to `CCN1c2ccccc2C(=O)N(C)c2cnc(Nc3ccc(NS(C)(=O)=O)cc3)nc21` [ID-2], for which the IC50 came to 390 nM on recombinant MST2 and 80 nM on recombinant Mst1.

With `CCN1c2ccccc2C(=O)N(C)c2cnc(Nc3cccc(S(N)(=O)=O)c3)nc21` [ID-3], the IC50 at recombinant Mst1 amounted to 8650 nM.

Turning to `CC(C)N1c2ccccc2C(=O)N(C)c2cnc(Nc3cccc(S(N)(=O)=O)c3)nc21` [IE-2], the IC50 at recombinant Mst1 was 15800 nM.

For the molecule `CC(C)N1c2ccccc2C(=O)N(C)c2cnc(Nc3ccc(NS(C)(=O)=O)cc3)nc21` [IE-3], the IC50 on recombinant MST2 came to 8210 nM; on recombinant Mst1, 2720 nM.

On to `CN1C(=O)c2ccccc2N(C2CCCC2)c2nc(Nc3ccc(S(N)(=O)=O)cc3)ncc21` [IF-2], for which the IC50 came out at 3860 nM on recombinant MST2 and 630 nM at recombinant Mst1.

Turning to `CN1C(=O)c2ccccc2N(C2CCCC2)c2nc(Nc3ccc(S(=O)(=O)N4CCC(O)CC4)cc3)ncc21` [IF-3], the IC50 on recombinant MST2 was found to be 15700 nM; on recombinant Mst1, 2440 nM.

As to `CN1CCN(S(=O)(=O)c2ccc(Nc3ncc4c(n3)N(C3CCCC3)c3ccccc3C(=O)N4C)cc2)CC1` [IF-4], the IC50 at recombinant Mst1 was found to be 6460 nM.

On to `CCN1CCN(Cc2ccc(Nc3ncc4c(n3)N(C3CCCC3)c3ccccc3C(=O)N4C)cc2C(F)(F)F)CC1` [IF-6], for which the IC50 on recombinant Mst1 stood at 9760 nM.

For `CN1C(=O)c2ccccc2Nc2nc(Nc3ccc(S(N)(=O)=O)cc3)ncc21` [IG-1], the values for the IC50 at recombinant MST2 and at recombinant Mst1 were 2700 nM and 1550 nM, respectively.

Regarding `CN1C(=O)c2ccccc2Nc2nc(Nc3ccc(NS(C)(=O)=O)cc3)ncc21` [IG-2], the IC50 worked out at 14600 nM at recombinant MST2 and 5800 nM on recombinant Mst1.

As to `Cc1ccc2c(c1)N(C)c1nc(Nc3ccc(S(C)(=O)=O)cc3)ncc1N(C)C2=O` [IH-1], the IC50 on recombinant MST2 worked out at 4810 nM; on recombinant Mst1 it was 5010 nM.

As for `Cc1cccc2c1N(C)c1nc(Nc3ccc(S(C)(=O)=O)cc3)ncc1N(C)C2=O` [IH-2], the IC50 was 1680 nM at recombinant MST2 and 890 nM at recombinant Mst1.

In the case of `Cc1cccc2c1N(C)c1nc(Nc3ccc(S(N)(=O)=O)cc3)ncc1N(C)C2=O` [IH-4], the IC50 on recombinant MST2 stood at 190 nM; at recombinant Mst1, 150 nM.

In the case of `Cc1ccc2c(c1)N(C)c1nc(Nc3ccc(S(N)(=O)=O)cc3)ncc1N(C)C2=O` [IH-5], the IC50 on recombinant MST2 stood at 2730 nM; on recombinant Mst1, 2400 nM.

For the molecule `CN1C(=O)c2ccc(F)cc2N(C)c2nc(Nc3ccc(S(N)(=O)=O)cc3)ncc21` [IH-7], the IC50 at recombinant MST2 came out at 2490 nM; on recombinant Mst1 it was 3120 nM.

Turning to `CN1C(=O)c2ccc(F)cc2N(C)c2nc(Nc3ccc(S(C)(=O)=O)cc3)ncc21` [IH-8], the IC50 amounted to 3360 nM at recombinant MST2 and 2170 nM at recombinant Mst1.

In the case of `CN1C(=O)c2cc(Cl)ccc2N(C)c2nc(Nc3ccc(S(C)(=O)=O)cc3)ncc21` [IH-9], the IC50 at recombinant MST2 worked out at 11600 nM; on recombinant Mst1 it was 5670 nM.

As for `CN1C(=O)c2cc(Cl)ccc2N(C)c2nc(Nc3ccc(S(N)(=O)=O)cc3)ncc21` [IH-10], the IC50 on recombinant Mst1 is 5930 nM.

For the molecule `CN1C(=O)c2cccc(F)c2N(C)c2nc(Nc3ccc(S(N)(=O)=O)cc3)ncc21` [IH-11], the IC50 on recombinant MST2 came to 440 nM; at recombinant Mst1, 230 nM.

In the case of `CN1C(=O)c2cccc(F)c2N(C)c2nc(Nc3ccc(S(C)(=O)=O)cc3)ncc21` [IH-12], the IC50 on recombinant MST2 worked out at 1940 nM; on recombinant Mst1, 1660 nM.

Consider `CN1C(=O)c2ccc(Cl)cc2N(C)c2nc(Nc3ccc(S(N)(=O)=O)cc3)ncc21` [IH-13], for which the IC50 on recombinant MST2 turned out to be 9470 nM; on recombinant Mst1, 7820 nM.

`CN1C(=O)c2ccc(Cl)cc2N(C)c2nc(Nc3ccc(S(C)(=O)=O)cc3)ncc21` [IH-14]: the IC50 at recombinant MST2 turned out to be 22500 nM.

For `CN1C(=O)c2sccc2N(C)c2nc(Nc3cccc(S(N)(=O)=O)c3)ncc21` [II-2], the IC50 at recombinant Mst1 was 2710 nM.

`CSc1ccc(Nc2ncc3c(n2)N(C)c2ccsc2C(=O)N3C)cc1` [II-3]: the results for the half-inhibitory concentration (IC50) at recombinant MST2 and at recombinant Mst1 were 1720 nM and 850 nM, respectively.

As to `CN1C(=O)c2sccc2N(C)c2nc(Nc3ccc(S(C)(=O)=O)cc3)ncc21` [II-4], the results for the half-inhibitory concentration (IC50) at recombinant MST2 and on recombinant Mst1 were 220 nM and 170 nM, respectively.

As to `CN1C(=O)c2sccc2N(C)c2nc(Nc3ccc(S(=O)(=O)Oc4ccccc4)cc3)ncc21` [II-5], the IC50 was 8890 nM on recombinant MST2 and 4640 nM at recombinant Mst1.

`CN1C(=O)c2sccc2N(C)c2nc(Nc3ccc(S(=O)(=O)NC4CC4)cc3)ncc21` [II-6]: the IC50 at recombinant MST2 stood at 20 nM; at recombinant Mst1, 260 nM.

For `CN1CCN(S(=O)(=O)c2ccc(Nc3ncc4c(n3)N(C)c3ccsc3C(=O)N4C)cc2)CC1` [II-7], the IC50 on recombinant MST2 is 150 nM; on recombinant Mst1, 1100 nM.

Consider `CN1C(=O)c2sccc2N(C)c2nc(Nc3ccc(S(=O)(=O)N4CCC(O)CC4)cc3)ncc21` [II-8], for which the figures for the IC50 at recombinant MST2 and on recombinant Mst1 were 1030 nM and 80 nM, respectively.

With `CN1C(=O)c2sccc2N(C)c2nc(Nc3ccc(C(=O)O)cc3)ncc21` [II-10], the IC50 on recombinant MST2 came to 1970 nM; on recombinant Mst1, 1020 nM.

For `CN1C(=O)c2sccc2N(C)c2nc(Nc3ccc(O)cc3)ncc21` [II-12], the IC50 on recombinant MST2 is 220 nM; on recombinant Mst1 it was 570 nM.

With `CN1C(=O)c2sccc2N(C)c2nc(Nc3ccc(C(N)=O)cc3)ncc21` [II-13], the IC50 on recombinant MST2 was 260 nM; at recombinant Mst1, 330 nM.

For the molecule `CN1C(=O)c2sccc2N(C)c2nc(Nc3ccc(N4CCC(O)CC4)cc3)ncc21` [II-15], the IC50 at recombinant MST2 was 1990 nM; on recombinant Mst1, 650 nM.

Consider `CN1C(=O)c2sccc2N(C)c2nc(Nc3cc[nH]n3)ncc21` [II-27], for which, at recombinant Mst1, the IC50 is 3440 nM.
